# From publication PMC10495264 (Nature Cell Biology, 2023)
# “And” between values parts separate entries of the source, which are not always exact repeats. Identical values can stand only once.
# Columns and labels:
# [1] = tested on: mTOR lysosomal localization; experiment: Co-localization of mTOR with LAMP2, confocal microscopy; assay type: cell-based, human; details: for mTOR/LAMP2 colocalization (Manders' coefficient), Mean: mean of pooled individual cells (ED Fig. 8d), DMSO mean 0.383214
# mTORC1 [2] = experiment: mTORC1 activity in HEK293FT cells (WT and knockout lines), phosphorylation of S6K, 4E-BP1, Grb10, TFEB by immunoblot; assay type: cell-based, human
# Procedure: Data represent the median fluorescence intensity of OPP Alexa Fluor 488; n = 6 biological replicates from two independent experiments. b,c,e,g,i,k,l, Data are the mean ± s.e.m. *P < 0.05, **P < 0.005, ***P < 0.0005. […] Source numerical data and unprocessed blots are provided. Source data
# (§1) Amino-acid-starvation experiments were carried out as described before[42],[43]. […] For the lipid depletion experiments, cells were cultured in medium containing 10% charcoal-stripped FBS (A3382101, Thermo Fisher Scientific), instead of full FBS, for 24 h before treatments with FASN inhibitors were performed. For FA supplementation, each FA was first conjugated to 10% FA-free BSA (fraction V; cat. no. 10735086001, Roche) for 1 h at 50 °C in a 50:50 volumetric ratio. The BSA-conjugated C16:0, C16:1, C18:1 and C18:2 FAs (100 μM) were then added to the media both 16 h previous to and at the start of the treatment with FASN inhibitors.
# (§2) For standard SDS–PAGE and immunoblotting experiments, cells from a well of a 12-well plate were lysed in 250 μl of ice-cold Triton lysis buffer (50 mM Tris pH 7.5, 1% Triton X-100, 150 mM NaCl, 50 mM NaF, 2 mM Na-vanadate and 0.011 g ml^−1 β-glycerophosphate) supplemented with 1×PhosSTOP phosphatase inhibitors (cat. no. 4906837001, Roche) and 1×cOmplete protease inhibitors (cat. no. 11836153001, Roche) for 10 min on ice. The samples were clarified by centrifugation (20,000g, 15 min, 4 °C) and the supernatants were boiled in 1×SDS sample buffer (5×SDS sample buffer: 350 mM Tris–HCl pH 6.8, 30% glycerol, 600 mM DTT, 12.8% SDS and 0.12% bromophenol blue). The band intensities were quantified using the ImageJ software.
# mTORC1 [3] = target: T1, mTORC1 (Homo sapiens, UniProt P42345); experiment: mTORC1 complex stability/composition, mTOR co-immunoprecipitation of Raptor and mLST8; details: cells treated with cerulenin (4 h)
# T1 construct: endogenous mTORC1 complexes were purified from HEK293FT cells; endogenous in cells; host or cells: HEK293FT (immunoprecipitation of endogenous mTOR); the 4E-BP1 substrate was made in E. coli BL21 RP
# Procedure: For the mammalian endogenous protein co-immunoprecipitation experiments, cells of a near-confluent 10-cm dish were lysed in CHAPS IP buffer (50 mM Tris pH 7.5, 0.3% CHAPS detergent, 150 mM NaCl, 50 mM NaF, 2 mM Na-vanadate and 0.011 g ml^−1 β-glycerophosphate) supplemented with 1×PhosSTOP phosphatase inhibitors and 1×EDTA-free cOmplete protease inhibitors (11873580001, Roche) for 10 min on ice. The samples were clarified by centrifugation (20,000g, 15 min, 4 °C) and the supernatants were subjected to immunoprecipitation by the addition of 3 μl of each antibody, incubation at 4 °C with rotation for 3 h, followed by incubation (4 °C with rotation) with 30 μl of a pre-washed Protein A agarose bead slurry (cat. no. 11134515001, Roche) for an additional hour. The beads were then washed four times with CHAPS IP wash buffer (50 mM Tris pH 7.5, 0.3% CHAPS detergent, 150 mM NaCl and 50 mM NaF) and boiled in 1×SDS loading buffer. A portion of the samples was kept aside as the input before the addition of antibodies. The samples were analysed by SDS–PAGE and the presence of co-immunoprecipitated proteins was detected by immunoblotting with the appropriate specific antibodies.
# To test whether Mal-CoA influences mTORC1 complex stability/composition, 1 mM Mal-CoA lithium salt solution was added to the lysates before the immunoprecipitation of mTOR, as described earlier. […]
# mTORC2 = mTORC2 activity in HEK293FT cells, p-AKT^S473/AKT immunoblot; assay type: cell-based, human
# Procedure: Phosphorylation of Ypk1 was used as the TORC2 readout. Phosphorylation of Snf1 was used as the AMPK activation readout. Total Snf1 was detected with an antibody to a histidine (His) stretch in Snf1. […] Source numerical data and unprocessed blots are provided. Source data
# as §1, §2
# mTORC1 [4] = experiment: mTORC1 activity in HEK293T cells (WT, AMPKα1/2 KO, DEPDC5 and RagA/B triple KO), p-S6K^T389/S6K immunoblot; assay type: cell-based, human
# Procedure: Source numerical data and unprocessed blots are provided. Source data
# as §2
# Data in graphs are shown as the mean ± s.e.m. *P < 0.05, **P < 0.005, ***P < 0.0005. Source numerical data and unprocessed blots are provided. Source data
# mTORC1 [5] = experiment: mTORC1 activity in U2OS cells, immunoblot; assay type: cell-based, human; details: Fasnall 25 μM 30 min; cerulenin 50 μM 2 or 4 h
# ERK1/2 = ERK1/2 phosphorylation immunoblot; assay type: cell-based, human; details: ED Fig. 5m; relative to DMSO
# Procedure: as §2
# (§3) Data in graphs are shown as the mean ± s.e.m. *P < 0.05, **P < 0.005. Source numerical data and unprocessed blots are provided. Source data
# AMPK = AMPK and ACC1 phosphorylation immunoblot; assay type: cell-based, human; details: relative to DMSO
# Procedure: as §2, §3
# mTORC1 [6] = experiment: mTORC1 activity in mouse embryonic fibroblasts (MEFs), p-S6K^T389/S6K immunoblot; assay type: cell-based; details: for p-S6K(T389)/S6K, Mean: ED Fig. 4e, relative to DMSO
# [7] = Fasnall 25 μM 30 min, cerulenin 50 μM 4 h
structure (smiles),measurement,setting,value
C/C=C/C/C=C/CCC(=O)[C@H]1O[C@H]1C(N)=O [cerulenin],mTOR/LAMP2 colocalization (Manders' coefficient),"[1]; Ceru 2h, Replicate 1, individual cells (ED Fig. 8d)",0.444 and 0.38 and 0.427 and 0.715 and 0.517 and 0.116 and 0.414 and 0.188 and 0.399 and 0.209 and 0.241 and 0.28 and 0.349 and 0.265 and 0.345 and 0.315 and 0.445 and 0.603 and 0.407 and 0.223 and 0.37 and 0.271 and 0.185
same,mTOR/LAMP2 colocalization (Manders' coefficient),"[1]; Ceru 2h, Replicate 3, individual cells (ED Fig. 8d)",0.327 and 0.378 and 0.177 and 0.225 and 0.217 and 0.171 and 0.169 and 0.316 and 0.307 and 0.469 and 0.189 and 0.266 and 0.237 and 0.271 and 0.179 and 0.175 and 0.173 and 0.339
same,"mTOR/LAMP2 colocalization (Manders' coefficient), Mean",[1]; Ceru 2h,0.3276
same,mTOR/LAMP2 colocalization (Manders' coefficient),"[1]; Ceru 4h, Replicate 1, individual cells (ED Fig. 8d)",0.295 and 0.311 and 0.327 and 0.333 and 0.217 and 0.408 and 0.17 and 0.428 and 0.395 and 0.227 and 0.135 and 0.322 and 0.371 and 0.272 and 0.219 and 0.26 and 0.303
same,mTOR/LAMP2 colocalization (Manders' coefficient),"[1]; Ceru 4h, Replicate 3, individual cells (ED Fig. 8d)",0.327 and 0.378 and 0.177 and 0.225 and 0.217 and 0.171 and 0.169 and 0.316 and 0.307 and 0.469 and 0.189 and 0.266 and 0.237 and 0.271 and 0.179 and 0.175 and 0.173 and 0.339
same,"mTOR/LAMP2 colocalization (Manders' coefficient), Mean",[1]; Ceru 4h,0.2619
same,mTOR localization at lysosomes (co-localization with LAMP2),"[1]; HEK293FT, 25 μM Fasnall or 50 μM cerulenin",significant dissociation
same,"p-Grb10(S476)/Grb10, Mean","mTORC1 [2]; ED Fig. 3e, relative to DMSO",0.6323
same,"p-TFEB(S211)/TFEB, Mean","mTORC1 [2]; ED Fig. 3f, relative to DMSO",0.6501
same,"p-4E-BP1(T37/46)/4E-BP1, Mean","mTORC1 [2]; ED Fig. 3g, relative to DMSO",0.1632
same,"p-S6K(T389)/S6K, Mean","mTORC1 [2]; ED Fig. 6b, relative to Luc",0.5038
same,mTORC1 activity towards Grb10 and TFEB (cerulenin: also 4E-BP1),mTORC1 [2]; [7],downregulates
same,"mTORC1 activity (phosphorylation of S6K, 4E-BP1, Grb10 and TFEB)","mTORC1 [2]; HEK293FT cells, Fasnall, cerulenin or siFASN",suppressed
same,"p-S6K(T389)/S6K, Mean","mTORC1 [2]; HEK293FT, 50 μM cerulenin 2h, DMSO = 1, n = 8, Fig. 2i",0.7401
same,"p-S6K(T389)/S6K, Mean","mTORC1 [2]; HEK293FT, 50 μM cerulenin 4h, DMSO = 1, n = 8, Fig. 2i",0.4346
same,"p-S6K(T389)/S6K, Mean","mTORC1 [2]; TSC1 KO HEK293FT, cerulenin 50 μM, 4 h, respective DMSO = 1, n = 3, Fig. 5p",0.4527
same,"p-S6K(T389)/S6K, Mean","mTORC1 [2]; WT HEK293FT, cerulenin 50 μM, 4 h, respective DMSO = 1, n = 3, Fig. 5p",0.3623
same,stability and composition of mTORC1,mTORC1 [3],not affected
same,phosphorylation of Akt (mTORC2 substrate),mTORC2; [7],did not significantly alter
same,"p-AKT(S473)/AKT, Mean","mTORC2; cerulenin 50 μM, 4 h, DMSO = 1, n = 3, Fig. 3d",0.8351
same,"p-S6K(T389)/S6K, Mean","mTORC1 [4]; ED Fig. 7c, AMPKa1/2 KO, 2h, relative to AMPKa1/2 KO DMSO",0.7893
same,"p-S6K(T389)/S6K, Mean","mTORC1 [4]; ED Fig. 7c, AMPKa1/2 KO, 4h, relative to AMPKa1/2 KO DMSO",0.6235
same,"p-S6K(T389)/S6K, Mean","mTORC1 [4]; ED Fig. 7c, WT, 2h, relative to WT DMSO",0.7439
same,"p-S6K(T389)/S6K, Mean","mTORC1 [4]; ED Fig. 7c, WT, 4h, relative to WT DMSO",0.528
same,"p-S6K(T389)/S6K, Mean","mTORC1 [4]; ED Fig. 7h, DEPDC5+RagA/B KO, 2h, relative to DEPDC5+RagA/B KO DMSO",0.6252
same,"p-S6K(T389)/S6K, Mean","mTORC1 [4]; ED Fig. 7h, DEPDC5+RagA/B KO, 4h, relative to DEPDC5+RagA/B KO DMSO",0.4969
same,"p-S6K(T389)/S6K, Mean","mTORC1 [4]; ED Fig. 7h, WT, 2h, relative to WT DMSO",0.7136
same,"p-S6K(T389)/S6K, Mean","mTORC1 [4]; ED Fig. 7h, WT, 4h, relative to WT DMSO",0.5404
same,mTORC1 activity in U2OS,mTORC1 [5],downregulates
same,"p-ERK(T202/Y204)/ERK, Mean",ERK1/2,1.697
same,"p-AMPK(T172)/AMPK, Mean",AMPK; ED Fig. 5e,0.8121
same,"p-ACC1(S79)/ACC1, Mean",AMPK; ED Fig. 5f,1.111
same,"p-S6K(T389)/S6K, Mean",mTORC1 [6]; 2h,0.8743
same,"p-S6K(T389)/S6K, Mean",mTORC1 [6]; 4h,0.3448
same,mTORC1 activity in MEFs,"mTORC1 [6]; Fasnall 25 μM 30 min, cerulenin 50 μM 2 or 4 h",downregulates
